Data on one substance can be found in patent EP1762248A1, “Use of cobalt porphyrins in joint therapy with an immunosuppressant drug for treatment of transplant patients or autoimmune disorders” (CORIT Consorzio per la Ricerca sul, priority 2005, dated 2007).

Where two headings read alike, the source gives them in different places. Where only a bound is given, the exact number is not on record here.

The test system of one data set is PAEC cells. Put plainly: Proliferation of PAEC cells by CFSE labelling and cytofluorometric analysis. Type of data set: cell-based, Pig. The note with it: CoPP alone, various concentrations; versus untreated PAEC controls (figure 1). The text has this: Two in vitro experimental models have been used.
CFSE is a non-fluorescent dye which diffuses passively into the cell cytoplasm. Once inside the cytoplasm, the dye is cleaved by intracellular esterases, thus becoming fluorescent. This binds strongly to cellular proteins and is retained during cellular development. At each cell division stage, CFSE is distributed evenly to daughter cells, with the result that each cellular generation will inherit half of the CFSE content. When analysed by cytofluorimetry, the sequential reduction of CFSE is visualised as distinct peaks corresponding to ever more decreasing fluorescence. PAEC proliferation has been evaluated as a proliferation index, calculated as the sum of the cells in all generations divided by the number of original parental cells (e.g. in the second generation, the parental cells would correspond to the total number of cells in the second generation divided by 2, in the third, divided by 4, because each will have given rise to 2^1, 2^2 cells and so on for each generation).

Data set [1] has as its system PBMCs. Description: Apoptosis analysis of simian PBMCs by PI staining (sub-diploid peak). Type of data set: cell-based, primate. The note with it: CoPP alone; concanavalin A, 96 hours. The procedure:
The pellet from each sample has been resuspended in 600 µl of PBS and subsequently, 1.4 ml of absolute ethanol has been added dropwise while shaking continuously. The samples have been left at -20°C overnight. Following fixation, the cells have been washed twice in PBS. The pellet has been resuspended in 500 µl of PI at a concentration of 50 µg/ml, to which 6.25 µl of Nonidet P40 and 8 µl of RNase A (1 mg/ml) have been added. The samples have been shaken vigorously and incubated for at least half an hour in the dark at room temperature. Following incubation, the samples have been analysed using a cytofluorimeter, for cell cycle analysis.
(§1) By means of staining with the DNA intercalator, PI, it has been possible to evaluate the apoptotic cells as a sub-diploid peak and the cells in the DNA synthesis and duplication stage (S+G2 stage) as peaks with a DNA content greater than or equal to the diploid content. The proliferation index of PBMCs has been evaluated by staining the cells with CFSE at the same time as stimulation.
In order to study apoptosis, the percentage of cells in the sub-diploid stage has been quantified.

Data set [2] has as its system PBMCs. Put plainly: Proliferation of concanavalin A activated simian PBMCs by CFSE labelling. Format: cell-based, primate. The note with it: CoPP alone (CsA concentration 0), 96 hours (figure 2).
Excerpt: as §1

Another data set deals with HO-1. The note with it: paec, 72 h. From the text:
Equal amounts of protein of each sample have been loaded and separated by electrophoresis on a 12% polyacrylamide gel in the presence of SDS (SDS-PAGE) and then transferred onto a nitrocellulose membrane (Amersham-Pharmacia) by means of electroblotting. […] The specific band has been detected by adding a chemiluminescent substrate followed by exposure to photographic film (ECL-Amersham-Pharmacia). The relative amount of HO-1 protein, normalised to the actin content of each sample, has been determined with the use of a densitometer (Pharmacia).
Following stimulation, HO-1 expression has been assessed by Western Blotting and densitometric analysis of the bands obtained. HO-1 expression is reported as the ratio of the intensity of the bands with respect to the control (table 1). The amount of protein loaded is normalised for actin.

For cobalt (III) protoporphyrin [CoPP], in the data set with PAEC cells, the “proliferation index of PAECs” value is recorded as “increases the proliferation index in a dose dependent manner”. For the same substance, the “apoptosis (cells in the sub-diploid stage)” value with PBMCs [1] was “up to 6%”. Besides, the “concentration at which PBMC proliferation is inhibited” value with PBMCs [2] was > 25 µM. Besides, the entries for the “HO-1 expression in PAECs as the ratio of band intensity with respect to the control and normalised for actin (R)” value in the data set with HO-1 (50 µM) and in the data set on HO-1 (100 µM) were 6.0 and 4.6, respectively.
